In publication PMC9412875, “^64Cu-DOTHA2-PSMA, a Novel PSMA PET Radiotracer for Prostate Cancer with a Long Imaging Time Window” (Pharmaceuticals, 2022):
“Also recorded” adds a separate entry of the source.

Assays:
[1] = Plasma stability (ex vivo) and protein binding in mouse serum/plasma; format: in vitro ADME; settings: for 64Cu released from Proteins / 64Cu-DOTHA2-PSMA Released from Proteins: after 10% TFA; for proportion of free 64Cu: excess natCu-DOTHA2-PSMA
Experimental: Plasma stability studies were carried out by incubating ^64Cu-DOTHA2-PSMA (50 MBq in 250 μL PBS buffer) in 250 μL of mouse serum at 37 °C for up to 24 h. The plasma was then mixed twice with ethanol (1:1) to precipitate all the proteins. The samples were subjected to vortex mixing for 1 min and then centrifugation for 10 min at 7000 rpm. Plasma proteins were separated from the soluble component by ultracentrifugation and the radioactivity was assessed. The supernatant fraction was assayed by radio-TLC on C18 plates and by UPLC; free ^64Cu(OAc)2 and ^64Cu-DOTHA2-PSMA were used as standards. The radio-TLCs were eluted with 0.1 M sodium citrate buffer at pH 5.5 using an Instant Imager system (BioScan, DC, U.S.A.) for radiodetection. The precipitated proteins were again subjected to 10% TFA, vortexed for 2–3 min, and then centrifuged for 10 min at 7000 rpm. The separation and analysis for the supernatant and the proteins were performed in the same manner.
The protein binding ability was evaluated by incubating ^64Cu-DOTHA2-PSMA (100 MBq) in phosphate buffer (250 μL, pH 7) at 37 °C and fresh mouse serum (250 μL) and for 1 h, 4 h, and 24 h. Plasma proteins were precipitated by the addition of ethanol (1:1, v/v) to the plasma samples, followed by centrifugation at 7000 rpm for 5 min at room temperature and separation of the supernatant. This process was repeated three times with the same volume of ethanol, and the supernatants were pooled. The radioactivity content of the supernatant and the precipitated protein were measured in a dose calibrator to obtain the protein binding percentage.

LNCaP cells = test: Cellular efflux assay; format: cell-based, human; settings: 1h incubation, efflux time 3 h
[2] = In vivo stability (blood, urine, liver) after injection; design: species or system balb/c mice
Experimental: For metabolite analysis, three balb/c mice were injected with a bolus of 32 MBq of ^64Cu-DOTHA2-PSMA in 0.3 mL saline by tail vein (real IA: 26.4–39.0 MBq). Blood was collected at 1 h p.i. (0.01–0.1 mL) in heparin-coated tubes and then centrifuged at 10,000 rpm for 10 min. Subsequently, the pellet and supernatant were separated, and the relative activity was determined. Radio-TLC was performed to assess the stability of the radiolabeled compound in the blood and in plasma. Two balb/c mice were injected with 45 MBq (real IA: 44.7–45.5 MBq). Urine was collected at 1 h p.i. and analyzed by UPLC. Two balb/c mice were injected with 59 MBq and then euthanized and dissected at 2 h p.i. to harvest the liver (real IA: 58.9–59.3 MBq). The livers were promptly washed and put on ice. They were homogenized with an ice-cold piston with 1 mL of water, extracted, centrifuged (14,000 rpm; 3 min), and mixed with 1 mL of acetonitrile before 4 further cycles of centrifugation and the collection of supernatants. All the pellets were mixed with 1 mL of 10% TFA and centrifuged, and the final supernatant was analyzed by Radio-TLC. The activity was measured in all the supernatants.

LNCaP tumor = test: PET imaging of LNCaP tumor-bearing mice; format: in vivo, NRG mice
Experimental: All the experiments were conducted according to a protocol approved by the Animal Ethics Committee of the Université de Sherbrooke and were in accordance with the guidelines of the Canadian Council on Animal Care. All animal manipulations that could cause pain, stress, or that required immobilization were performed under isoflurane anesthesia (2% in 2 L/min oxygen) with a heating pad or bed. When protocols required animal death (e.g., biodistribution) or ethical limits (e.g., tumor size) were reached, euthanasia was performed by CO2 inhalation under isoflurane anesthesia. […] For PET imaging, NRG mice were used (The Jack Laboratory, 7–10 weeks old, and 19–26 g at time of experiment). A total of 200 µL of a 1:1 Matrigel/PBS mixture containing […] LNCaP cells was injected subcutaneously on each shoulder of NRG mice. Experiments were initiated 2 to 4 weeks after inoculation when tumors reached a diameter between 5 and 10 mm.
Dynamic (0–1 h p.i.) and static (4 h, 20 min long and 24 h p.i., 1h long) PET assays were performed in combination with 5 min CT in NRG mice injected with 8 MBq of ^64Cu-DOTHA2-PSMA in 0.3 mL of saline through the tail vein (LabPET 8/-Triumph; Gamma Medica, Northridge, CA, USA). Blocking was achieved by the co-injection of 20 nmol of ^natCu-DOTHA2-PSMA (n = 3 per group). We selected this blocking agent because its pharmacokinetics are similar to ^64Cu-DOTHA2-PSMA. PET images were reconstructed using the three-dimensional maximum likelihood […] method (MLEM-3D) algorithm with 20 iterations and a 60 mm field-of-view (Gamma Medica). The analyses were conducted using AMIDE software 1.0.4. Quantitative image data were reported as %IA per volume (centimeter cube, cc).

[3] = ex vivo, mouse plasma, 100 equiv. natCu-DOTHA2-PSMA, 1 h
[4] = ex vivo, mouse plasma, 100 equiv. natCu-DOTHA2-PSMA, 4 h
[5] = ex vivo, mouse plasma, 100 equiv. natCu-DOTHA2-PSMA, 24 h
[6] = in mice, 1 h p.i., after 10% TFA

Structure (SMILES): CN([O-])C(=O)CN1CCN(CC(=O)NCC2CCC(C(=O)NC(Cc3ccc4ccccc4c3)C(=O)NCCCCC(NC(=O)NC(CCC(=O)O)C(=O)O)C(=O)O)CC2)CCN(CC(=O)N(C)[O-])CCN(CC(=O)N(C)O)CC1.[64Cu+2] (stereo not shown) [^64Cu-DOTHA2-PSMA]
- demetallation or degradation in mouse serum (radio-UPLC, radio-TLC) ([1]; 37 °C, up to 24 h): No major demetallation or degradation
- change of signal bound to plasma proteins on adding excess natCu-DOTHA2-PSMA ([1]; ex vivo, 4 h): 1%
- change of signal bound to plasma proteins on adding excess natCu-DOTHA2-PSMA ([1]; ex vivo, 24 h): 6%
- 64Cu in the Supernatant ([1]; ex vivo, mouse plasma 37 °C, 1 h, % of total signal): 0%
- 64Cu in the Supernatant ([1]; ex vivo, mouse plasma 37 °C, 4 h, % of total signal): 1.98%
- 64Cu in the Supernatant ([1]; ex vivo, mouse plasma 37 °C, 24 h, % of total signal): 1.28%
- 64Cu and 64Cu-DOTHA2-PSMA Bound to Plasma Proteins [1, 3]: 24%
- 64Cu in the Supernatant [1, 3]: 0%
- 64Cu released from Proteins [1, 3]: 0.82%
- 64Cu and 64Cu-DOTHA2-PSMA Bound to Plasma Proteins [1, 4]: 33%
- 64Cu in the Supernatant [1, 4]: 3.35%
- 64Cu released from Proteins [1, 4]: 0.84%
- 64Cu and 64Cu-DOTHA2-PSMA Bound to Plasma Proteins [1, 5]: 30%
- 64Cu in the Supernatant [1, 5]: 5.60%
- 64Cu released from Proteins [1, 5]: 2.14%
- 64Cu and 64Cu-DOTHA2-PSMA Bound to Plasma Proteins ([1]; ex vivo, mouse plasma, 1 h): 24%
- signal attributed to free 64Cu overall (supernatant and precipitate) ([1]; ex vivo, mouse plasma, 1 h): 0.79%
- 64Cu-DOTHA2-PSMA Released from Proteins ([1]; ex vivo, mouse plasma, 1 h): 15%
- 64Cu released from Proteins ([1]; ex vivo, mouse plasma, 1 h, % of total signal): 0.79%
- 64Cu and 64Cu-DOTHA2-PSMA Bound to Plasma Proteins ([1]; ex vivo, mouse plasma, 4 h): 34%
- signal attributed to free 64Cu overall (supernatant and precipitate) ([1]; ex vivo, mouse plasma, 4 h): 2.62%
- 64Cu-DOTHA2-PSMA Released from Proteins ([1]; ex vivo, mouse plasma, 4 h): 21%
- 64Cu released from Proteins ([1]; ex vivo, mouse plasma, 4 h, % of total signal): 0.64%
- 64Cu and 64Cu-DOTHA2-PSMA Bound to Plasma Proteins ([1]; ex vivo, mouse plasma, 24 h): 36%
- free 64Cu, share of the plasma supernatant signal (UPLC) ([1]; ex vivo, mouse plasma, 24 h): less than 3%
- 64Cu-DOTHA2-PSMA Released from Proteins ([1]; ex vivo, mouse plasma, 24 h): 21%
- 64Cu released from Proteins ([1]; ex vivo, mouse plasma, 24 h, % of total signal): 0.65%
- proportion of free 64Cu ([1]; ex vivo, mouse plasma, 1 h): 0.82%
- proportion of free 64Cu ([1]; ex vivo, mouse plasma, 4 h): 4.19%
- proportion of free 64Cu ([1]; ex vivo, mouse plasma, 24 h): 7.75%
- Retained activity normalized to time 0 (LNCaP cells): 76.53%
- 64Cu metabolite observed in the liver ([2]; balb/c mice, 2 h p.i., radio-TLC): 25%
- tracer form found in urine ([2]; balb/c mice, urine 1 h p.i., UPLC): intact ^64Cu tracer was found in urine; also recorded: no metabolite was observed in urine
- 64Cu and 64Cu-DOTHA2-PSMA Bound to Plasma Proteins ([2]; in mice, 1 h p.i.): 48%
- 64Cu dissociation in combined supernatant and plasma proteins ([2]; in mice, 1 h p.i.): 4.58%
- 64Cu released from Proteins [2, 6]: 1.98%
- 64Cu-DOTHA2-PSMA Released from Proteins [2, 6]: 31%
- 64Cu in the Supernatant ([2]; in mice, blood 1 h p.i., % of total plasma signal): 2.60%
- free 64Cu in blood (peak in plasma supernatant, radio-TLC) ([2]; mice, 1 h p.i.): 5%
- free 64Cu in the liver ([2]; mice, 2 h p.i., radio-TLC): no free ^64Cu was observed; also recorded: free ^64Cu was not seen in liver
- tumor uptake (PET) (LNCaP tumor; 1 h p.i., co-injection of blocking agent (20 nmol natCu-DOTHA2-PSMA)): 4.78 ± 0.96 % IA/cc
- liver uptake (PET, peak) (LNCaP tumor; 4 h p.i.): 26.8 ± 5.3 % IA/cc
- tumor uptake (PET) (LNCaP tumor; 4 h p.i., co-injection of blocking agent (20 nmol natCu-DOTHA2-PSMA)): 7.46 ± 1.07 % IA/cc
- tumor uptake (PET) (LNCaP tumor; 24 h p.i., co-injection of blocking agent (20 nmol natCu-DOTHA2-PSMA)): 8.62 ± 0.74 % IA/cc
- tumor uptake (PET) (LNCaP tumor; LNCaP tumor, NRG mice, 1 h p.i., non-blocked): 14.0 ± 5.0 % IA/cc
- tumor uptake (PET) (LNCaP tumor; LNCaP tumor, NRG mice, 4 h p.i., non-blocked): 23.8 ± 11.5 % IA/cc
- tumor uptake (PET) (LNCaP tumor; LNCaP tumor, NRG mice, 24 h p.i., non-blocked): 18.5 ± 6.6 % IA/cc
- time of highest tumoral uptake (LNCaP tumor; PET, LNCaP tumor): 4 h p.i.
- time of peak kidney uptake, calyxes (LNCaP tumor; dynamic PET): 10 min p.i.
- time of peak kidney uptake, cortex (LNCaP tumor; dynamic PET): 5 min p.i.
- tumor-to-kidney ratios (LNCaP tumor; from 1 h p.i.): greater than 1
- time of peak of urinary clearance (kidney calyxes and cortex signals) (LNCaP tumor; time-activity curves): ≤ 10 min
